Reference: PubChem BioAssay AID248 (DTP/NCI, 2004)
Where “and” joins values, the source holds several entries; their conditions need not be identical. Identical values can stand only once. Toxic doses and inconclusive results are not listed. Rule as the data show it: active = T/C of 150% or more; inactive = T/C below 125%.

System: L1210 leukemia ip in BDF1 mice, survival T/C
Assay: NCI In Vivo Anticancer Drug Screen. Data for tumor model L1210 Leukemia (intraperitoneal) in B6D2F1 (BDF1) mice
Conditions: endpoint: mean survival time, higher = longer survival
Summary of the method: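 Each compound was tested against a transplantable tumor grown in mice. The endpoint was survival, with treated animals benchmarked against vehicle controls as a simple ratio.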

[1] = dose: 75.0 mg/kg/injection, schedule: Q01DX001 (ip), vehicle: saline
[2] = dose: 150.0 mg/kg/injection, schedule: Q01DX001 (ip), vehicle: saline
[3] = dose: 300.0 mg/kg/injection, schedule: Q01DX001 (ip), vehicle: saline
[4] = dose: 100.0 mg/kg/injection, schedule: Q04DX002 (ip), vehicle: Klucel (hydroxypropylcellulose) (HPC)
[5] = dose: 200.0 mg/kg/injection, schedule: Q04DX002 (ip), vehicle: Klucel (hydroxypropylcellulose) (HPC)
[6] = dose: 400.0 mg/kg/injection, schedule: Q04DX002 (ip), vehicle: Klucel (hydroxypropylcellulose) (HPC)
[7] = dose: 100.0 mg/kg/injection, schedule: Q01DX001 (ip), vehicle: saline
[8] = dose: 200.0 mg/kg/injection, schedule: Q01DX001 (ip), vehicle: saline
[9] = dose: 400.0 mg/kg/injection, schedule: Q01DX001 (ip), vehicle: saline
[10] = dose: 100.0 mg/kg/injection, schedule: Q01DX009 (ip), vehicle: saline
[11] = dose: 200.0 mg/kg/injection, schedule: Q01DX009 (ip), vehicle: saline
[12] = dose: 400.0 mg/kg/injection, schedule: Q01DX009 (ip), vehicle: saline
[13] = dose: 100.0 mg/kg/injection, schedule: Q01DX009 (ip), vehicle: Klucel (hydroxypropylcellulose) (HPC)
[14] = dose: 200.0 mg/kg/injection, schedule: Q01DX009 (ip), vehicle: Klucel (hydroxypropylcellulose) (HPC)
[15] = dose: 400.0 mg/kg/injection, schedule: Q01DX009 (ip), vehicle: Klucel (hydroxypropylcellulose) (HPC)
[16] = dose: 100.0 mg/kg/injection, schedule: Q04DX003 (ip), vehicle: saline with Tween-80

Measured: T/C

CCOC(=O)Nc1cc2[nH]cnc2c(NC(=O)OCC)n1
inactive: [1] 95 % of control | [2] 101 % of control | [3] 92 % of control

O=CN1CCN(c2ccccc2)CC1
inactive: [4] 97 % of control | [5] 87 % of control | [6] 91 % of control

CCOC(=O)C(=Cc1ccccc1)C(=O)OCC
inactive: [7] 96 % of control | [4] 98 % of control | [8] 100 % of control | [5] 95 % of control | [9] 100 % of control | [6] 102 % of control

C=CCc1ccc(O)c(OC)c1
inactive: dose: 100.0 mg/kg/injection, schedule: Q04DX002 (ip), vehicle: saline + alcohol 108 % of control | dose: 200.0 mg/kg/injection, schedule: Q04DX002 (ip), vehicle: saline + alcohol 101 % of control | dose: 400.0 mg/kg/injection, schedule: Q04DX002 (ip), vehicle: saline + alcohol 97 % of control

CC1CCC2(CC1=O)C(C)CC(=O)C2C(C)C (stereo not drawn)
inactive: [10] 94 % of control | [11] 102 % of control | [12] 98 % of control

NCCSC12CC3CC(CC(C3)C1)C2
inactive: dose: 100.0 mg/kg/injection, schedule: Q04DX002 (ip), vehicle: saline 90 % of control | dose: 200.0 mg/kg/injection, schedule: Q04DX002 (ip), vehicle: saline 94 % of control | dose: 400.0 mg/kg/injection, schedule: Q04DX002 (ip), vehicle: saline 96 % of control

N#CC(C#N)=CNc1ccc(S(N)(=O)=O)cc1
inactive: [1] 101 % of control | [2] 95 % of control | [3] 96 % of control

Cc1cnc(NN)nc1-c1ccccc1O
inactive: dose: 25.0 mg/kg/injection, schedule: Q04DX002 (ip), vehicle: Klucel (hydroxypropylcellulose) (HPC) 95 % of control | dose: 50.0 mg/kg/injection, schedule: Q04DX002 (ip), vehicle: Klucel (hydroxypropylcellulose) (HPC) 97 % of control | [4] 105 % of control and 110 % of control

CC(CCc1ccccc1)C12CCC(CC1O)C2 (stereo not drawn)
inactive: [4] 96 % of control | [5] 110 % of control | [6] 96 % of control

O=[N+]([O-])c1cccn2nc(-c3ccccc3)nc12
inactive: dose: 100.0 mg/kg/injection, schedule: Q01DX001 (ip), vehicle: acetone 98 % of control | dose: 200.0 mg/kg/injection, schedule: Q01DX001 (ip), vehicle: acetone 98 % of control | dose: 400.0 mg/kg/injection, schedule: Q01DX001 (ip), vehicle: acetone 101 % of control

O=S(=O)(Nc1nccs1)c1ccc(Nc2ccnc3cc(Cl)ccc23)cc1
inactive: [7] 93 % of control | [8] 95 % of control | [9] 87 % of control

O=C(CC(O)(C(F)(F)F)C(F)(F)F)c1ccc(C(O)CC(O)(C(F)(F)F)C(F)(F)F)cc1 (stereo not drawn)
inactive: dose: 25.0 mg/kg/injection, schedule: Q01DX009 (ip), vehicle: gum acacia 106 % of control | dose: 25.0 mg/kg/injection, schedule: Q04DX003 (ip), vehicle: gum acacia 102 % of control | dose: 50.0 mg/kg/injection, schedule: Q01DX009 (ip), vehicle: gum acacia 89 % of control | dose: 50.0 mg/kg/injection, schedule: Q04DX003 (ip), vehicle: gum acacia 90 % of control | dose: 100.0 mg/kg/injection, schedule: Q04DX003 (ip), vehicle: gum acacia 93 % of control and 98 % of control

O=S1(=O)CCNNCC1
inactive: dose: 37.5 mg/kg/injection, schedule: Q01DX009 (ip), vehicle: saline 100 % of control | dose: 75.0 mg/kg/injection, schedule: Q01DX009 (ip), vehicle: saline 109 % of control | dose: 150.0 mg/kg/injection, schedule: Q01DX009 (ip), vehicle: saline 105 % of control | dose: 300.0 mg/kg/injection, schedule: Q01DX009 (ip), vehicle: saline 103 % of control

O=c1[nH][nH]c(=O)c2[nH]cnc12
inactive: [13] 107 % of control | dose: 100.0 mg/kg/injection, schedule: Q04DX003 (ip), vehicle: Klucel (hydroxypropylcellulose) (HPC) 104 % of control | [14] 103 % of control | dose: 200.0 mg/kg/injection, schedule: Q04DX003 (ip), vehicle: Klucel (hydroxypropylcellulose) (HPC) 104 % of control | [15] 117 % of control | dose: 400.0 mg/kg/injection, schedule: Q04DX003 (ip), vehicle: Klucel (hydroxypropylcellulose) (HPC) 117 % of control

O=C(/C=C/c1ccc(Cl)c(Cl)c1)C1CCC2CCCCC2C1 (stereo not drawn)
inactive: dose: 100.0 mg/kg/injection, schedule: Q01DX009 (ip), vehicle: saline with Tween-80 90 % of control | dose: 100.0 mg/kg/injection, schedule: Q04DX002 (ip), vehicle: saline with Tween-80 105 % of control | dose: 200.0 mg/kg/injection, schedule: Q01DX009 (ip), vehicle: saline with Tween-80 93 % of control | dose: 200.0 mg/kg/injection, schedule: Q04DX002 (ip), vehicle: saline with Tween-80 101 % of control | dose: 400.0 mg/kg/injection, schedule: Q01DX009 (ip), vehicle: saline with Tween-80 90 % of control | dose: 400.0 mg/kg/injection, schedule: Q04DX002 (ip), vehicle: saline with Tween-80 90 % of control

CCN(CC)C(=S)[S][Pb]([c]1ccccc1)([c]1ccccc1)[c]1ccccc1
inactive: dose: 100.0 mg/kg/injection, schedule: Q01DX001 (ip), vehicle: steriod suspending solution 97 % of control | dose: 200.0 mg/kg/injection, schedule: Q01DX001 (ip), vehicle: steriod suspending solution 92 % of control

CCOc1ccc(OCC)c(NC(=O)c2ccccc2)c1
inactive: [16] 94 % of control | dose: 200.0 mg/kg/injection, schedule: Q04DX003 (ip), vehicle: saline with Tween-80 92 % of control | dose: 400.0 mg/kg/injection, schedule: Q04DX003 (ip), vehicle: saline with Tween-80 95 % of control

C=C1[C@@H](C)[C@H]2[C@H](Cc3ccccc3)NC(=O)[C@]23OC(=O)/C=C/[C@H](O)CCC[C@@H](C)C/C=C/[C@H]3[C@@H]1O
inactive: dose: 4.0 mg/kg/injection, schedule: Q04DX002 (ip), vehicle: saline 112 % of control | dose: 8.0 mg/kg/injection, schedule: Q04DX002 (ip), vehicle: saline 98 % of control | dose: 16.0 mg/kg/injection, schedule: Q04DX002 (ip), vehicle: saline 109 % of control | dose: 32.0 mg/kg/injection, schedule: Q04DX002 (ip), vehicle: saline 91 % of control

O=C1c2cccc3cccc(c23)C1(c1ccccc1)c1ccccc1
inactive: [10] 100 % of control | [11] 100 % of control | [12] 111 % of control

CC(=O)OCC1OC(OC(C)=O)C(OC(C)=O)C1OC(C)=O (stereo not drawn)
inactive: [7] 107 % of control | [8] 106 % of control | [9] 102 % of control

COc1cc(OC)c(NC(=O)c2ccccc2Cl)cc1Cl
inactive: [13] 92 % of control | [14] 90 % of control | [15] 93 % of control

Cc1ccc(-n2c(=O)c(N=Nc3ccc(Br)cc3)c(O)n(-c3ccccc3C)c2=S)cc1
inactive: dose: 100.0 mg/kg/injection, schedule: Q01DX001 (ip), vehicle: Klucel (hydroxypropylcellulose) (HPC) 95 % of control | dose: 200.0 mg/kg/injection, schedule: Q01DX001 (ip), vehicle: Klucel (hydroxypropylcellulose) (HPC) 88 % of control | dose: 400.0 mg/kg/injection, schedule: Q01DX001 (ip), vehicle: Klucel (hydroxypropylcellulose) (HPC) 88 % of control

CC(=O)Nc1cccc(-c2ccccc2Cl)c1
inactive: [7] 93 % of control | [8] 96 % of control | [9] 98 % of control

c1cc2c3c(c1)nc(CCCc1nc4cccc5c4n1CCC5)n3CCC2
inactive: dose: 25.0 mg/kg/injection, schedule: Q04DX003 (ip), vehicle: saline with Tween-80 109 % of control | dose: 50.0 mg/kg/injection, schedule: Q04DX003 (ip), vehicle: saline with Tween-80 96 % of control | [16] 93 % of control and 87 % of control

Cc1cc(CCl)c(C)c(Br)c1C
inactive: dose: 6.25 mg/kg/injection, schedule: Q01DX009 (ip), vehicle: Klucel (hydroxypropylcellulose) (HPC) 95 % of control | dose: 12.5 mg/kg/injection, schedule: Q01DX009 (ip), vehicle: Klucel (hydroxypropylcellulose) (HPC) 90 % of control | dose: 25.0 mg/kg/injection, schedule: Q01DX009 (ip), vehicle: Klucel (hydroxypropylcellulose) (HPC) 89 % of control | dose: 50.0 mg/kg/injection, schedule: Q01DX009 (ip), vehicle: Klucel (hydroxypropylcellulose) (HPC) 92 % of control
